Experimental data: ChEMBL document CHEMBL4834434, “Discovery of Novel and Potent N-Methyl-d-aspartate Receptor Positive Allosteric Modulators with Antidepressant-like Activity in Rodent Models” (J Med Chem, 2021)
Active and inactive are the calls of the source. No cut-off for these calls is given here.

Key:
[1] = target: Glutamate NMDA receptor (Mus musculus) (UniProt P35436+Q91ZU9+Q03391+P35438+Q01097+Q01098+A2AIR5); assay: Positive allosteric modulation of C57BL/6 mouse NMDA receptor assessed as fold change in compound potentiated NMDA-induced current relative to NMDA current alone in presence of saturating glutamate by patch-clamp method; format: tissue-based; settings: Brain, filed as positive allosteric modulator
[2] = target: Sodium-dependent dopamine transporter (Rattus norvegicus) (UniProt P23977); assay: Displacement of [3H]-WIN35428 from rat striatum DAT; format: tissue-based
Chain of Sodium-dependent dopamine transporter (Rattus norvegicus) (P23977 whole entry): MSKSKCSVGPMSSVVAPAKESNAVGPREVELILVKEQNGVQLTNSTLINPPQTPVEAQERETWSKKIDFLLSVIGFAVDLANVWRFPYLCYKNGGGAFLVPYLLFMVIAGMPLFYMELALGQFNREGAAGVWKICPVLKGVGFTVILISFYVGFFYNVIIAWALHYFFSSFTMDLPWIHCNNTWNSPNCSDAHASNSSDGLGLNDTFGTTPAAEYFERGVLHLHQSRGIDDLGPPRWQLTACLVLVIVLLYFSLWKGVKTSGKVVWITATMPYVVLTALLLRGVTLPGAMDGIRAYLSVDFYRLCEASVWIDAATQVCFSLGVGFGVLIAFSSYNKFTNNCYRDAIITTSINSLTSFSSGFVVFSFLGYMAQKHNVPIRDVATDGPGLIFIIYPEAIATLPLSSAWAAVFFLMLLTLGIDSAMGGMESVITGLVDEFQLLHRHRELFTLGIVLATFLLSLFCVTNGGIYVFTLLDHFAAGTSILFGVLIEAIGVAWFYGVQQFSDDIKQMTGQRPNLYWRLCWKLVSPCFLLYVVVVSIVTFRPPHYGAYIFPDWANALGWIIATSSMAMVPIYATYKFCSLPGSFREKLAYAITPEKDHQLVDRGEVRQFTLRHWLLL

[3] = Cytotoxicity against African green monkey Vero cells assessed as cell growth inhibition at 120 uM measured after 48 hrs by CCK8 assay relative to control; format: cell-based; settings: chlorocebus sabaeus
[4] = target: D(3) dopamine receptor (Homo sapiens) (UniProt P35462); assay: Displacement of [3H]-methylspiperone from human dopamine D3 receptor expressed in CHO cells incubated for 60 mins by liquid scintillation counting analysis; format: cell-based
Chain of D(3) dopamine receptor (Homo sapiens) (P35462 whole entry): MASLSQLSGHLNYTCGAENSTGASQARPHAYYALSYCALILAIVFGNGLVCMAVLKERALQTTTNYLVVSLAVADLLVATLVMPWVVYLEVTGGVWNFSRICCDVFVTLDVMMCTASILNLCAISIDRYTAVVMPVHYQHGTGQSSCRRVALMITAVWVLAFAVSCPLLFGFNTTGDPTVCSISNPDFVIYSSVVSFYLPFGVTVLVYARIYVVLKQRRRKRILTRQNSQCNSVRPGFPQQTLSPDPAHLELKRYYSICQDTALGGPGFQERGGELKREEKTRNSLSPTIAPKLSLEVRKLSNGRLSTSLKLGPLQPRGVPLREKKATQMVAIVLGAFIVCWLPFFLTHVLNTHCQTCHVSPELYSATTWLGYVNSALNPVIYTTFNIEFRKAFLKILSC

[5] = AUC (0 to t) in ICR mouse at 3 mg/kg, iv measured up to 24 hrs by HPLC-MS/MS analysis; format: ADME, organism-based; parameters: route intravenous, dose 3 mg/kg, time <=24; settings: in vivo
[6] = Oral bioavailability in Sprague-Dawley rat at 10 mg/kg measured up to 1280 mins by HPLC-MS/MS analysis; format: ADME, organism-based; settings: in vivo
[7] = Volume of distribution at steady state in ICR mouse at 3 mg/kg, iv measured up to 24 hrs by HPLC-MS/MS analysis; format: ADME, organism-based; settings: in vivo, read-out: Vdss
[8] = target: 5-hydroxytryptamine receptor 2A (Homo sapiens) (UniProt P28223); assay: Displacement of [3H]-ketanserin from human 5HT2AR expressed in CHO cells incubated for 30 mins by liquid scintillation counting analysis; format: cell-based
Chain of 5-hydroxytryptamine receptor 2A (Homo sapiens) (P28223 whole entry): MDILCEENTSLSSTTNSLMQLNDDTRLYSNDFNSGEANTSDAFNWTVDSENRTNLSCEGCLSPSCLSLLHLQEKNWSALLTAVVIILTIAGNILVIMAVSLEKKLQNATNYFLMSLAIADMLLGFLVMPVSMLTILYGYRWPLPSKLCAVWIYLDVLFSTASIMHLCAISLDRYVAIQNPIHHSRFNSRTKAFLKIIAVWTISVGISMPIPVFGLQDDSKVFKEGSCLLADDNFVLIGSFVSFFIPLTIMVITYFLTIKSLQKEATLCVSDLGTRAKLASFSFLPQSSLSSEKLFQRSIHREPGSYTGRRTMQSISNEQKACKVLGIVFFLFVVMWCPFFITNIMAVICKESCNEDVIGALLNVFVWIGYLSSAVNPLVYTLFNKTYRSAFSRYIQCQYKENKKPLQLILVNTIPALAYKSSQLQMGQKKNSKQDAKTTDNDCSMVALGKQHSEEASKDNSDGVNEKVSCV

[9] = Cytotoxicity against African green monkey Vero cells assessed as cell growth inhibition at 60 uM measured after 48 hrs by CCK8 assay relative to control; format: cell-based; settings: chlorocebus sabaeus
[10] = Drug concentration in ICR mouse plasma at 10 mg/kg, po measured at 2 hrs by LC-MS/MS analysis; format: ADME, organism-based
[11] = Ratio of drug concentration in brain to plasma in Sprague-Dawley rat at 3 mg/kg, iv measured at 80 mins by LC-MS/MS analysis; format: ADME, organism-based; settings: read-out: BPR
[12] = Drug concentration in ICR mouse plasma at 3 mg/kg, iv measured at 0.5 hrs by LC-MS/MS analysis; format: ADME, organism-based
[13] = target: D(2) dopamine receptor (Homo sapiens) (UniProt P14416); assay: Displacement of [3H]-methylspiperone from human dopamine D2 receptor expressed in CHO cells incubated for 30 mins by liquid scintillation counting analysis; format: cell-based
Chain of D(2) dopamine receptor (Homo sapiens) (P14416 whole entry): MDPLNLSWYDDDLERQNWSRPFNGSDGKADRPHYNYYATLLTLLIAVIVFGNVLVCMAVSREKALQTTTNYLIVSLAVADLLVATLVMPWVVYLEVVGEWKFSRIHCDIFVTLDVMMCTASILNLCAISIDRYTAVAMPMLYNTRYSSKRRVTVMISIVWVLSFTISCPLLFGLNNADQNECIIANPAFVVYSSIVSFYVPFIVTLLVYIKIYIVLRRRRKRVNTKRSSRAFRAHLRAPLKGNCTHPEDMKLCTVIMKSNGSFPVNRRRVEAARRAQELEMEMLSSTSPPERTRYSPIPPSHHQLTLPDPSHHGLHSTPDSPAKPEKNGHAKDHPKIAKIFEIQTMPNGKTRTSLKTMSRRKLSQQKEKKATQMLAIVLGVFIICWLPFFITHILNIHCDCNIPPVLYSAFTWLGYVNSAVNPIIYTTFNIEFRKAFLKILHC

[14] = target: 5-hydroxytryptamine receptor 6 (Homo sapiens) (UniProt P50406); assay: Displacement of [3H]-LSD from human 5HT6 incubated for 30 mins by liquid scintillation counting analysis
Chain of 5-hydroxytryptamine receptor 6 (Homo sapiens) (P50406 whole entry): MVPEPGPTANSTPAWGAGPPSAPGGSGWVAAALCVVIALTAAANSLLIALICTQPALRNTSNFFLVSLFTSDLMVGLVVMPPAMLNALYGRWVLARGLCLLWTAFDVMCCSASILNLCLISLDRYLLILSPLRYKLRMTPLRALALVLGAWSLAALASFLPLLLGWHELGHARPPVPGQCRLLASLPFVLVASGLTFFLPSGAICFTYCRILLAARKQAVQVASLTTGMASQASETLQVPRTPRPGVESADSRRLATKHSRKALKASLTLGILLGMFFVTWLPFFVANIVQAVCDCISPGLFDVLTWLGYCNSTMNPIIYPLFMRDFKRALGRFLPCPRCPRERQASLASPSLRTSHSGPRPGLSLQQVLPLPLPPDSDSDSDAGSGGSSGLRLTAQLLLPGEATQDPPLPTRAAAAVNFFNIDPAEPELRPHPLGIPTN

[15] = AUC (0 to t) in Sprague-Dawley rat at 10 mg/kg, po measured up to 1280 mins by HPLC-MS/MS analysis; format: ADME, organism-based; parameters: route oral, dose 10 mg/kg, time <=1280; settings: in vivo
[16] = Drug concentration in Sprague-Dawley rat plasma at 3 mg/kg, iv measured at 80 mins by LC-MS/MS analysis; format: ADME, organism-based
[17] = target: 5-hydroxytryptamine receptor 2C (Rattus norvegicus) (UniProt P08909); assay: Displacement of [3H]-mesulergine from rat cerebral cortex 5HT2CR incubated for 15 mins by liquid scintillation counting analysis; format: tissue-based
Chain of 5-hydroxytryptamine receptor 2C (Rattus norvegicus) (P08909 whole entry): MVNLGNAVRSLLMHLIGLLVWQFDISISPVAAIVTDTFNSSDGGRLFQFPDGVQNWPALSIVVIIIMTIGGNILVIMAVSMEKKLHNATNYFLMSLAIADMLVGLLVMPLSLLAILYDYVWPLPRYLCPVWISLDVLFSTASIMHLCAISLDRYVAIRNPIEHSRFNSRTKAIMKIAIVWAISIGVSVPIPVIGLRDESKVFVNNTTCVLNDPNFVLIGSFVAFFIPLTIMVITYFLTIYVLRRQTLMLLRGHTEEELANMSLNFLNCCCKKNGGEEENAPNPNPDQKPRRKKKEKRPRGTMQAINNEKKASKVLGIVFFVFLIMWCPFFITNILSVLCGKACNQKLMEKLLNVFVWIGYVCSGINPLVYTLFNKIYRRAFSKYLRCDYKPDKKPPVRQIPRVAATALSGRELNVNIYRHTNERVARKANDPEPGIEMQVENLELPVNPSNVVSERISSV

[18] = Drug concentration in Sprague-Dawley rat plasma at 3 mg/kg, iv measured at 20 mins by LC-MS/MS analysis; format: ADME, organism-based
[19] = Clearance in ICR mouse at 3 mg/kg, iv measured up to 24 hrs by HPLC-MS/MS analysis; format: ADME, organism-based; settings: in vivo
[20] = Effect on locomotor activity in ICR mouse assessed as hyperlocomotion at 10 mg/kg, ip measured after 90 mins; format: ADME, organism-based; settings: in vivo, 1.5 h
[21] = target: Sodium-dependent serotonin transporter (Homo sapiens) (UniProt P31645); assay: Displacement of [3H]-paroxetine from SERT (unknown origin); parameters: dose or concentration left out as unconfirmed
Chain of Sodium-dependent serotonin transporter (Homo sapiens) (P31645 whole entry, looked up): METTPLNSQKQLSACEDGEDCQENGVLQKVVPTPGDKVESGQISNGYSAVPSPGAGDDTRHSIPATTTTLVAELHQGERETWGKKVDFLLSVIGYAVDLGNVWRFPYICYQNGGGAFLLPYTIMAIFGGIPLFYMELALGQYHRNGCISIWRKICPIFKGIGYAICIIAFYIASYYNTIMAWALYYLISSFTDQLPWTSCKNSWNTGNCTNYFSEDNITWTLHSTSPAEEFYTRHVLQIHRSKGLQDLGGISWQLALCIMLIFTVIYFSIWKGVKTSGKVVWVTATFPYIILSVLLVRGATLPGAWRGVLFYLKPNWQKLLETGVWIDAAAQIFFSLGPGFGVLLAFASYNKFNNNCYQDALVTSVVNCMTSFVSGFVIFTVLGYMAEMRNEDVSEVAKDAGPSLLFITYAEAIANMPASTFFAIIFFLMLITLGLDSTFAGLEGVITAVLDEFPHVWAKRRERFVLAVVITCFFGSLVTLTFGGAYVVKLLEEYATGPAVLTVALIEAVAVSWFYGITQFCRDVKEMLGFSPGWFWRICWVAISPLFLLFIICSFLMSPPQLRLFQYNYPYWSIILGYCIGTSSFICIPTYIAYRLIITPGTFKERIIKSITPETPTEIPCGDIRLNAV

[22] = Ratio of drug concentration in brain to plasma in ICR mouse at 10 mg/kg, po measured at 0.5 hrs by LC-MS/MS analysis; format: ADME, organism-based; settings: read-out: BPR
[23] = MRT in ICR mouse at 10 mg/kg, po measured up to 24 hrs by HPLC-MS/MS analysis; format: ADME, organism-based; settings: in vivo
[24] = Cmax in Sprague-Dawley rat at 3 mg/kg, iv measured up to 1280 mins by HPLC-MS/MS analysis; format: ADME, organism-based; parameters: route intravenous, dose 3 mg/kg, time <=1280; settings: in vivo
[25] = test system: Mus musculus; assay: Antidepressant activity in ICR mouse assessed as decrease in immobility time at 3 to 10 mg/kg, ip measured after 26 mins by forced swim test; format: functional, organism-based; settings: dose 3-10 mg/kg
[26] = target: 5-hydroxytryptamine receptor 1B (Homo sapiens) (UniProt P28222); assay: Displacement of [3H]-GR125743 from 5HT1BR (unknown origin) expressed in CHO cells; format: cell-based
Chain of 5-hydroxytryptamine receptor 1B (Homo sapiens) (P28222 whole entry): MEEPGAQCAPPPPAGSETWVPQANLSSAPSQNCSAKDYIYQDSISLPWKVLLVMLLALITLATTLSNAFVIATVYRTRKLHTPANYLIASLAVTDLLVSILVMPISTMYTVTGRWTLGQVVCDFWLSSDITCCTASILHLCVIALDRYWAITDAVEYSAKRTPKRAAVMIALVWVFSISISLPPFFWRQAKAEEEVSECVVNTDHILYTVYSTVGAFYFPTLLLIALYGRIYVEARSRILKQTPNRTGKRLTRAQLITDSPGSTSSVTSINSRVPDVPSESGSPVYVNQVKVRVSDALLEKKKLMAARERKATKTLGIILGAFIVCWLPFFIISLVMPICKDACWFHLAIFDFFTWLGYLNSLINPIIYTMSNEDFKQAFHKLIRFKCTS

[27] = Drug concentration in Sprague-Dawley rat brain at 3 mg/kg, iv measured at 20 mins by LC-MS/MS analysis; format: ADME, organism-based; settings: read-out: Ct
[28] = Ratio of drug concentration in brain to plasma in ICR mouse at 10 mg/kg, po measured at 2 hrs by LC-MS/MS analysis; format: ADME, organism-based; settings: read-out: BPR
[29] = Ratio of drug concentration in brain to plasma in ICR mouse at 3 mg/kg, iv measured at 0.5 hrs by LC-MS/MS analysis; format: ADME, organism-based; settings: read-out: BPR
[30] = target: Sodium-dependent noradrenaline transporter (Homo sapiens) (UniProt P23975); assay: Displacement of [3H]-Nisoxetine from NET (unknown origin)
Chain of Sodium-dependent noradrenaline transporter (Homo sapiens) (P23975 whole entry): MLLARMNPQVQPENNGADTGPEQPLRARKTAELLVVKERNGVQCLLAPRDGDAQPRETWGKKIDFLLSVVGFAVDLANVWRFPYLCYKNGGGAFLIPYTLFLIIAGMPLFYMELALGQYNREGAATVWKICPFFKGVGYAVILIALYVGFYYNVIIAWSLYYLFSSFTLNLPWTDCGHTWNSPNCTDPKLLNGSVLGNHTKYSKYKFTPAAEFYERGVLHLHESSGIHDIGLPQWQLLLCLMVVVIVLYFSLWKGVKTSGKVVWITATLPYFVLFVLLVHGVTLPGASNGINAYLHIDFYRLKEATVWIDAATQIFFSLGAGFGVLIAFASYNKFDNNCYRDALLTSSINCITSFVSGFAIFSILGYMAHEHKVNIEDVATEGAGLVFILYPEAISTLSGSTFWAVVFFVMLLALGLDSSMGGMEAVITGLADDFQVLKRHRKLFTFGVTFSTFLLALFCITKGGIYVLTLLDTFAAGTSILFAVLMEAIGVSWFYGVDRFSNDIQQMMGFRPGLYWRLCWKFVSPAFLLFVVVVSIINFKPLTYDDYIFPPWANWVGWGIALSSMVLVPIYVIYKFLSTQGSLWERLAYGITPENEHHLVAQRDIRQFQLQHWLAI

[31] = Cytotoxicity against human HEK293 cells assessed as cell growth inhibition at 120 uM measured after 48 hrs by CCK8 assay relative to control; format: cell-based

Compound: Cc1cc(C)n(Cc2ccc(C(=O)Nc3ccc(Cl)c(Cl)c3)s2)n1
- fold change (FC) [1]: 14.3
- inhibition [2]: inactive
- inhibition at 48 h, 120 µM [3]: 22.6%
- inhibition [4]: inactive
- AUC(0-t) at 24 h [5]: 1450 ng·h/mL
- bioavailability [6]: 8.32%
- Vd [7]: 8.3 L/kg
- inhibition [8]: inactive
- inhibition at 48 h, 60 µM [9]: 21.9%
- concentration at 2 h [10]: 451 ng/mL
- Kp at 1.333 h [11]: 1.5
- concentration at 0.5 h [12]: 389 ng/mL
- inhibition [13]: inactive
- inhibition [14]: inactive
- AUC(0-t) at 1280 min [15]: 503 ng·h/mL
- concentration at 1.333 h [16]: 239 ng/mL
- inhibition [17]: inactive
- concentration at 20 min [18]: 1490 ng/mL
- clearance [19]: 33.3 mL/min/kg
- Activity [20]: Non-Toxic
- inhibition [21]: inactive
- Kp at 0.5 h [22]: 0.37
- MRT [23]: 4.2 h
- Cmax [24]: 2350 ng/mL
- Activity [25]: Active
- inhibition [26]: inactive
- concentration at 20 min [27]: 2190 ng/g
- Kp at 2 h [28]: 0.38
- Kp at 0.5 h [29]: 0.41
- inhibition [30]: inactive
- inhibition at 48 h, 120 µM [31]: -14%
